Each structure is given as a SMILES string. Where only a bound is given, the exact number is not on record here.

From ChEMBL document CHEMBL1149965, “Synthesis and biological evaluation of conformationally constrained bicyclic and tricyclic balanol analogues as inhibitors of protein kinase C” (Bioorg Med Chem Lett, 1995) come the findings set out here.

Test [1] addresses Protein kinase C eta type (Homo sapiens, UniProt P24723). The test is described as follows: Inhibition of Protein kinase C eta.
The target of test [2] is T1, Protein kinase C beta type (Homo sapiens, UniProt P05771). Put plainly: Inhibition of Protein kinase C beta 1.
Test [3] deals with Protein kinase C alpha type (Homo sapiens, UniProt P17252). The test is described as follows: Inhibition of Protein kinase C alpha.
Test [4] addresses Protein kinase C delta type (Homo sapiens, UniProt Q05655). Put plainly: Inhibition of Protein kinase C delta.
Test [5] deals with T2, Protein kinase C epsilon type (Homo sapiens, UniProt Q02156).
T2 sequence (Q02156 whole entry): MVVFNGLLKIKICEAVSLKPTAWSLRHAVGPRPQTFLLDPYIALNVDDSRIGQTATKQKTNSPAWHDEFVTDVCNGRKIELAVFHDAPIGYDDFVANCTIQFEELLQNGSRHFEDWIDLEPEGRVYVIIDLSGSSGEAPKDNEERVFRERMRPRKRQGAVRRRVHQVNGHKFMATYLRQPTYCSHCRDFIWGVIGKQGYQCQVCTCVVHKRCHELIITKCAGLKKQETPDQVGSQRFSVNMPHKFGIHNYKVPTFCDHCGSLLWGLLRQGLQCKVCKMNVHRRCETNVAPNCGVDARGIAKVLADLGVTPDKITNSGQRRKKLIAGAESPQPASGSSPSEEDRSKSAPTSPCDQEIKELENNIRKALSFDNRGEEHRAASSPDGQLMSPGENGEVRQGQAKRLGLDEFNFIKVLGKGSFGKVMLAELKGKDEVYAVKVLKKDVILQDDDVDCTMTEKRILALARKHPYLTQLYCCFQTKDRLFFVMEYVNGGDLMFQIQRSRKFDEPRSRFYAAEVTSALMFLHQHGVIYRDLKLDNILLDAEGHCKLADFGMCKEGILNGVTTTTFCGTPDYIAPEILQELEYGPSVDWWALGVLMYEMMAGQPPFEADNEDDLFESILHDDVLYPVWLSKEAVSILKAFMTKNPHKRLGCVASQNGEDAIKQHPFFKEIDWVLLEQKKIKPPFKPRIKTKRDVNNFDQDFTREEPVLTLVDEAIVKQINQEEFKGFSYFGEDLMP
The test is described as follows: Inhibition of Protein kinase C epsilon.

Test [6] addresses Protein kinase C gamma type (Homo sapiens, UniProt P05129). The test is described as follows: Inhibition Protein kinase C gamma.
The target in test [7] is T1, Protein kinase C beta type. The test is described as follows: Inhibition of Protein kinase C beta 2.
In test [8] the target is cAMP-dependent protein kinase (PKA) (Homo sapiens, UniProt P22694+P17612+P22612). Put plainly: Inhibition of Protein Kinase A. It counts as protein assay.
In test [9] the target is T3, Protein kinase C zeta type (Homo sapiens, UniProt Q05513).
T3 sequence (Q05513 whole entry): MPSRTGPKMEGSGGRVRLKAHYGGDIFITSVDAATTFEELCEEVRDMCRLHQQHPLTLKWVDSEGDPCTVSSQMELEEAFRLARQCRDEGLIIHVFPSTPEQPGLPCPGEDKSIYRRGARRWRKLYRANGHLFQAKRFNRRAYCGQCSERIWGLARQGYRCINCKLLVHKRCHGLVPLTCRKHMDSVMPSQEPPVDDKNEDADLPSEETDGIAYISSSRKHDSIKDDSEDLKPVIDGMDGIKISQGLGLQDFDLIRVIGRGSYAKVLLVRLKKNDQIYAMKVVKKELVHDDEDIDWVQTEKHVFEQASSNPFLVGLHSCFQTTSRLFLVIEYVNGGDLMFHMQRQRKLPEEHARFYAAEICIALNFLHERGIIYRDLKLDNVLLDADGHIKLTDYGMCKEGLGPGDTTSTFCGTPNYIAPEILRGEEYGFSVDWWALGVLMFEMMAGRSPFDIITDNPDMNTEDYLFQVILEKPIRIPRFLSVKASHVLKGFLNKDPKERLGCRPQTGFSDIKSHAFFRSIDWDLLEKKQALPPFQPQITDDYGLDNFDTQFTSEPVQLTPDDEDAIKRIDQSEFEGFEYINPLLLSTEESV
The test is described as follows: Inhibition of Protein kinase C zeta.

Protein kinase C delta type, sequence (Q05655 whole entry): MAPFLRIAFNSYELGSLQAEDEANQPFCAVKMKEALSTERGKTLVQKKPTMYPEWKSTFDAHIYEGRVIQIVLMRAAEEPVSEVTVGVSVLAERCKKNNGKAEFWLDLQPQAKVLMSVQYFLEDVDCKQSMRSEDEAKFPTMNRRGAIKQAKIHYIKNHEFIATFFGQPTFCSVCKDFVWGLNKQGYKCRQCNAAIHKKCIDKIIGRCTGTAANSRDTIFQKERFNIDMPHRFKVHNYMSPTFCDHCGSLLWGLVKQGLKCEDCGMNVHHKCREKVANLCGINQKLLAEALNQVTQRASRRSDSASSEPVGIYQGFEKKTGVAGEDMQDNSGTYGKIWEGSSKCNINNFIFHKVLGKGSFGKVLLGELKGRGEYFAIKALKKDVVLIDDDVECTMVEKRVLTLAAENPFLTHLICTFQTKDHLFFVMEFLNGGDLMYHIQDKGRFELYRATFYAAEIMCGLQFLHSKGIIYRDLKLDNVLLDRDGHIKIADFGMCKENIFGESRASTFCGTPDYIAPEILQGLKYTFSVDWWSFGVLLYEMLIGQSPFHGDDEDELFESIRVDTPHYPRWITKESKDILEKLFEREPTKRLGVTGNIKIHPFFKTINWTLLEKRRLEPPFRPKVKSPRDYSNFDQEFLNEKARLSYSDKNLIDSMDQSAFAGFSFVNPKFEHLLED
T1 sequence (P05771 whole entry): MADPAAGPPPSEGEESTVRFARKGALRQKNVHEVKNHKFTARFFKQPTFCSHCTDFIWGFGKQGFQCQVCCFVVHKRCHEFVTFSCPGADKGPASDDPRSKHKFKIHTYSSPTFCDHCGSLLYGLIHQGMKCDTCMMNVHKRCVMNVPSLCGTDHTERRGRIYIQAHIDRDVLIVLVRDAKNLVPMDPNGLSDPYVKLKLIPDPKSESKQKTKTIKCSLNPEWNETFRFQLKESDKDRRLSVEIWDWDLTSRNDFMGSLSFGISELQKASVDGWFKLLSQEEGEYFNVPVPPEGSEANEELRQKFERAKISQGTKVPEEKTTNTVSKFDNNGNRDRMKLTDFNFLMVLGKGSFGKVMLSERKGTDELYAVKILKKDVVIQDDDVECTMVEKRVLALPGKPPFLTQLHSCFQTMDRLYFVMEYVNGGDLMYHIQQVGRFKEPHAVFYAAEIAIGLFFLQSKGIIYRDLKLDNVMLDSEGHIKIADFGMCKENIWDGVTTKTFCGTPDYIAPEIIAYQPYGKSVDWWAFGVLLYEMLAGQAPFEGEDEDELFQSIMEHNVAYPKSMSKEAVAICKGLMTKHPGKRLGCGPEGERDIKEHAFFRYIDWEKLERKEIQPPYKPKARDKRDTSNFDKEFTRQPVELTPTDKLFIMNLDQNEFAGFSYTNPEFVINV
Protein kinase C eta type, sequence (P24723 whole entry): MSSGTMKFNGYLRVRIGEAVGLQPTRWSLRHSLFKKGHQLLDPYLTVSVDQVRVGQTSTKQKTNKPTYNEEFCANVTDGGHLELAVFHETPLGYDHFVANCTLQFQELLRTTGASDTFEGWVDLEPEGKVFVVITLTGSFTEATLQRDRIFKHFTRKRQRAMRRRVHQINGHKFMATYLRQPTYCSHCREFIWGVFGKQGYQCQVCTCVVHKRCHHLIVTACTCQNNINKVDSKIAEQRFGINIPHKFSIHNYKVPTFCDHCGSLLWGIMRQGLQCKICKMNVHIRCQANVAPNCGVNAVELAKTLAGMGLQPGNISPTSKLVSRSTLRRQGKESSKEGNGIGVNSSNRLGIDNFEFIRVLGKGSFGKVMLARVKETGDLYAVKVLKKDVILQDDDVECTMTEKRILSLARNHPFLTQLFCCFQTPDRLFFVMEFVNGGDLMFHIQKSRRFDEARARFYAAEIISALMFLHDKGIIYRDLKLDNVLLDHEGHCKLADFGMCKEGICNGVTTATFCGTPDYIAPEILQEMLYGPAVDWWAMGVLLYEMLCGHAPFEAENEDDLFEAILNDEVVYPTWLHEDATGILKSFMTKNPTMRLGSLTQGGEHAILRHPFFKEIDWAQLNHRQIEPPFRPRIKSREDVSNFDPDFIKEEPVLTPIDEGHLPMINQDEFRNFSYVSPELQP

Regarding `O=C(NC1CNC[C@@H]1OC(=O)c1cc(O)c(C(=O)c2c(O)cccc2C(=O)O)c(O)c1)c1ccc(O)cc1` (mixture of isomers), the IC50 (in general, the concentration at which inhibition is half-maximal) in [1] came to 4 nM; in [2] it was 17 nM; in [3], 22 nM; in test [4], 5 nM; in test [5], 15 nM; in test [6], 14 nM. The figures for the IC50 in test [7], in test [8] and in test [9] were 33 nM, 70 nM and > 150 nM, respectively.
Regarding `O=C(NC1C2CC(C3CCCC32)C1OC(=O)c1cc(O)c(C(=O)c2c(O)cccc2C(=O)O)c(O)c1)c1ccc(O)cc1` (stereo in doubt; anti), the IC50 was 50 nM in [1]; 150 nM in test [2]; 100 nM in test [3]; 50 nM in test [4]; 970 nM in test [5]; 50 nM in test [6]. Further, the IC50 came to 30 nM in test [7] and 32000 nM in test [8].
As to `CC1(C)C2CCC1(C)C(OC(=O)c1cc(O)c(C(=O)c3c(O)cccc3C(=O)O)c(O)c1)C2NC(=O)c1ccc(O)cc1` (stereo not drawn), the 50% inhibitory concentration (IC50) was found to be 310 nM in test [1]; 310 nM in [2]; 410 nM in test [3]; 340 nM in test [4]; 3600 nM in [5]; 210 nM in [6]. Further, the 50% inhibitory concentration (IC50) in test [7] was 80 nM; in [8], 26000 nM; in test [9] it was > 50000 nM.
Turning to `O=C(NC1C2CCC(C2)C1OC(=O)c1cc(O)c(C(=O)c2c(O)cccc2C(=O)O)c(O)c1)c1ccc(O)cc1` (stereo in doubt), the IC50 in test [1] came to 4500 nM; in test [2], 17000 nM; in test [3] it was 24000 nM; in test [4], 3500 nM; in [5], 1500 nM; in [6], 10000 nM. Moreover, the IC50 in test [7] is 6900 nM; in [8] it was > 50000 nM.
In the case of `O=C(NC1C2CCC(C2)C1OC(=O)c1cc(O)c(C(=O)c2c(O)cccc2C(=O)O)c(O)c1)c1ccc(O)cc1` (racemic), the IC50 was 20 nM in test [1]; 45 nM in [2]; 55 nM in test [3]; 20 nM in test [4]; 30 nM in test [5]; 35 nM in test [6]. The IC50 in test [7] was found to be 30 nM; in test [8], 1900 nM.
As to `O=C(NC1C2CC(C3CCCC32)C1OC(=O)c1cc(O)c(C(=O)c2c(O)cccc2C(=O)O)c(O)c1)c1ccc(O)cc1` (stereo in doubt; syn), the IC50 in [1] was 1900 nM; in test [2], 3300 nM; in test [3], 2700 nM; in test [4] it was 2000 nM; in test [5] it was 40000 nM; in [6], 1600 nM. In addition, the IC50 in [7] is 2100 nM; in test [8], > 50000 nM.
As for `O=C(NC1CN2CCC(CC2)C1OC(=O)c1cc(O)c(C(=O)c2c(O)cccc2C(=O)O)c(O)c1)c1ccc(O)cc1` (stereo in doubt; anti), the IC50 came out at 26 nM in [1]; 26 nM in [2]; 415 nM in test [3]; 112 nM in test [4]; 170 nM in [5]; 170 nM in test [6]. Besides, the IC50 in test [7] came to 69 nM; in test [8] it was 2000 nM.
For the molecule `CN1C2CCC1C(NC(=O)c1ccc(O)cc1)C(OC(=O)c1cc(O)c(C(=O)c3c(O)cccc3C(=O)O)c(O)c1)C2` (stereo in doubt; syn), the IC50 in test [1] stood at 2500 nM; in test [2], 22000 nM; in test [3], 35000 nM; in test [4], 3800 nM; in test [5], 49000 nM; in test [6], 16000 nM. In addition, the IC50 was 22000 nM in test [7], > 50000 nM in test [8] and > 50000 nM in test [9].
Consider `O=C(NC1CN2CCC(CC2)C1OC(=O)c1cc(O)c(C(=O)c2c(O)cccc2C(=O)O)c(O)c1)c1ccc(O)cc1` (stereo in doubt; syn), for which the IC50 in [1] was found to be 490 nM; in test [2] it was 6300 nM; in test [3], 12000 nM; in test [4], 1000 nM; in test [5], 14000 nM; in [6] it was 4600 nM. The IC50 in test [7] is 34000 nM; in test [8], > 50000 nM.
Consider `O=C(N[C@@H]1CNCCCC1OC(=O)c1cc(O)c(C(=O)c2c(O)cccc2C(=O)O)c(O)c1)c1ccc(O)cc1` (mixture of isomers), for which the IC50 in test [1] is 22 nM; in [2], 32 nM; in test [3], 74 nM; in test [4], 32 nM; in test [6] it was 34 nM; in test [7], 44 nM. Inhibition in test [9] was half-maximal at 3500 nM (IC50).
Consider `O=C(NC1CCC[C@@H]1OC(=O)c1cc(O)c(C(=O)c2c(O)cccc2C(=O)O)c(O)c1)c1ccc(O)cc1` (mixture of isomers), for which the IC50 came out at 1 nM in test [1]; 40 nM in test [2]; 40 nM in test [3]; 1 nM in test [4]; 50 nM in [5]; 10 nM in test [6]. This molecule also showed an IC50 in test [7] of 50 nM.
With `CN1C2CCC1C(NC(=O)c1ccc(O)cc1)C(OC(=O)c1cc(O)c(C(=O)c3c(O)cccc3C(=O)O)c(O)c1)C2` (stereo in doubt; anti), the IC50 amounted to 2800 nM in test [1]; 4400 nM in test [2]; 34000 nM in test [3]; 5000 nM in test [4]; 27000 nM in [5]; 4600 nM in [6]. For the same molecule, the IC50 is 14000 nM in test [7], > 50000 nM in test [8] and > 50000 nM in test [9].
